Test results from US20240327421A1 (Marquette University, priority 2017, published 2024).
“And” between values parts separate entries of the source, which are not always exact repeats. Equal values may be shown once. “Also recorded” adds a separate entry of the source.

Key:
ERα [1] = target: T1, ERα (Homo sapiens, UniProt P03372); test: Cell-based luciferase reporter assay, full length ERα, antagonist mode
T1 construct: employs a full length and native ER (comprised of an ER LBD and an ER DBD)
T1 sequence (P03372 1-595): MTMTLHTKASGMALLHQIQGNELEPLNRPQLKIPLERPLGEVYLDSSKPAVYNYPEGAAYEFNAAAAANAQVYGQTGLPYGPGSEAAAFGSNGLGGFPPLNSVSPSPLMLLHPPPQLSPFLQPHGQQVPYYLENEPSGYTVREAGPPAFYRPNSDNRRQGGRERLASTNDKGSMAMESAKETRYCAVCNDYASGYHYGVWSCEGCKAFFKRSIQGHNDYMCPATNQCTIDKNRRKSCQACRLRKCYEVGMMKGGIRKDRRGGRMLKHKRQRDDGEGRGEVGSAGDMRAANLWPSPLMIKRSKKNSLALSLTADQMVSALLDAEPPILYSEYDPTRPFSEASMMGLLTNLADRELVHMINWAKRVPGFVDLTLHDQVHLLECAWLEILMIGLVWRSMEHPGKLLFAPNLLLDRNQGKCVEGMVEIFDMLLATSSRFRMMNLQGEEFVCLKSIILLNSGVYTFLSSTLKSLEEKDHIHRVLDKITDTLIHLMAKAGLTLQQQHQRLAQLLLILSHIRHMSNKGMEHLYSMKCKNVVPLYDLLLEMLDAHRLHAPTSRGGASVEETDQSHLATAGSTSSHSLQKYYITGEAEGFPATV

[2] = target: T2, Peroxisome Proliferator-Activated Receptor (PPARδ) (Homo sapiens, UniProt Q03181); test: GeneBLAzer nuclear hormone receptor specificity assay, PPARδ; assay type: cell-based; details: 0.25 to 25 μM; listed as ISP358-2
T2 sequence (Q03181 211-439 limits assumed): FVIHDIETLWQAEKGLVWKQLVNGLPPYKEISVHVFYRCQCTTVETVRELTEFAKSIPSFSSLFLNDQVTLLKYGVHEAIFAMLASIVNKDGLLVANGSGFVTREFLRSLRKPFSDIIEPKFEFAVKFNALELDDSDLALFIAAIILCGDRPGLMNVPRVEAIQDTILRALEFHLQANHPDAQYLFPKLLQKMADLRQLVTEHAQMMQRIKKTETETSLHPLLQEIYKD
Method: Nuclear Hormone Receptor Specificity Assay. Selectivity measurements were performed using the SelectScreen™ cell-based nuclear receptor profiling service from ThermoFisher (FIG. 3A). This is a FRET-based assay that uses GeneBLAzer™ technology. It detects ligand binding to and activation of a nuclear hormone receptor of interest (ligand binding domain; LBD) that is fused to a GAL4 DNA binding domain (DBD), which upon activation induces expression of beta-lactamase. The assay has a Z′≥0.5 in agonist mode. […]

[3] = target: T3, Mineralocorticoid Receptor (MR) (Homo sapiens, UniProt P08235); test: GeneBLAzer nuclear hormone receptor specificity assay, MR; assay type: cell-based; details: 0.25 to 25 μM; listed as ISP358-2
T3 sequence (P08235 726-964 limits assumed): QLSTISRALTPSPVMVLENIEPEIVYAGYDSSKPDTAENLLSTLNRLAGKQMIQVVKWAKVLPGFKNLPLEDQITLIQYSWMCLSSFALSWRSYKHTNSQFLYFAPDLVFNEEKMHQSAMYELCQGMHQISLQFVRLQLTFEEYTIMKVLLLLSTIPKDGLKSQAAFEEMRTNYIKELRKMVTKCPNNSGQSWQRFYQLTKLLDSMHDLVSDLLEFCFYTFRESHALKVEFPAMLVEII

ovariectomized mice [4] = test: Object recognition memory consolidation test
ovariectomized mice [5] = test: Peripheral tissue pathology (H&E of liver, kidney, heart); assay type: in vivo; details: 24 h after single IP injection; 0.5 or 5 mg/kg ISP358-2, 0.05 mg/kg DPN
Method: Assessment of Potential Peripheral Pathology. To assess possible toxicity of ISP358-2 treatment to peripheral organs, ovariectomized mice received a single intraperitoneal injection of vehicle or ISP358-2, and liver, kidney, and heart tissues were collected 24 hours later. […] Tissues were fixed in 10% formalin buffered solution for 24 hours. Twenty specimens were processed and analyzed. Each specimen contained three pieces of tissue. The tissues from each animal was transferred to a labeled cassette and processed on an automated tissue processor following standard procedures. The tissues were then embedded in paraffin wax. No specific orientation of the tissue was performed. Four-micron sections were cut from each paraffin block and placed onto a slide. The slides were then stained using hematoxylin and cosin (H&E) on an automated stainer (FIGS. 13A-13L). The slides were then examined by a pathologist (ACM) who is board certified in anatomical pathology by the American Board of Pathology. All specimens contained three tissue samples corresponding to liver, kidney, and heart. In some instances, portions of adjacent tissues were also present. […] For heart, the myocytes and coronary vessels were examined, (2) evidence of inflammation was evaluated including hepatitis, glomerulonephritis, interstitial nephritis, and myocarditis, and (3) evidence of ischemic changes was examined. […]

[6] = target: T4, ERα LBD fused to GAL4 DBD (Homo sapiens, UniProt P03372); test: GeneBLAzer cell-based transcriptional activation, chimeric ERα; details: agonist mode
T4 sequence (P03372 311-547 limits assumed): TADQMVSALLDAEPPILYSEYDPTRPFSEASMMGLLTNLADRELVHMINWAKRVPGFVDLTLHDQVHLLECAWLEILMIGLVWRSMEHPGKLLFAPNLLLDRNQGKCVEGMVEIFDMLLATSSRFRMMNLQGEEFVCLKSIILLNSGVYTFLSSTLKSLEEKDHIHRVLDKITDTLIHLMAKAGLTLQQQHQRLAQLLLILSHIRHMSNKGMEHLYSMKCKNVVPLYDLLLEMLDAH

ERα [7] = target: T1, ERα; test: Cell-based luciferase reporter assay, full length ERα, agonist mode; details: full length ERα, 22 h, read-out: ERα agon. IC50

OC[C@H]1CC[C@H](c2ccc(O)cc2)CC1 [Compound 16]
ERα antagonist activity (ERα [1]; concentrations up to 10 μM, listed as ISP358-2): No measurable antagonist activity | IC50 (ERα [1]; inhibition of estradiol-induced transcription, read-out: ERα antagon. IC50): > 10 µM | agonist activity, PPARδ [2]: not an agonist; also recorded: no significant off-target activity | agonist activity, MR [3]: not an agonist; also recorded: no significant off-target activity | object recognition: time with novel object / memory consolidation (ovariectomized mice [4]; IP injection, 0.5 mg/kg, listed as ISP358-2, 0.5 mg/kg): exhibited a significant preference for the novel object relative to chance; also recorded: most effectively enhanced consolidation; also recorded: enhanced memory consolidation | object recognition: time with novel object / memory consolidation (ovariectomized mice [4]; IP injection, 5 mg/kg): somewhat of a trend for the 5 mg/kg ISP358-2 to prefer the novel object | object recognition: time with novel object / memory consolidation (ovariectomized mice [4]; dorsal hippocampal infusion, 10 pg/hemisphere, tested 48 h after training, chance 15 s): Neither the vehicle nor 10 pg ISP358-2 groups showed a preference for the novel object | object recognition: time with novel object / memory consolidation (ovariectomized mice [4]; dorsal hippocampal infusion, 100 pg/hemisphere, tested 48 h after training, listed as ISP358-2): spent significantly more time than chance with the novel object; also recorded: enhanced memory consolidation; also recorded: significantly increased time was spent | object recognition: time with novel object / memory consolidation (ovariectomized mice [4]; dorsal hippocampal infusion, 1 ng/hemisphere, tested 48 h after training, listed as ISP358-2): spent significantly more time than chance with the novel object; also recorded: enhanced memory consolidation; also recorded: significantly increased time was spent | object recognition: time with novel object / memory consolidation (ovariectomized mice [4]; oral gavage, 0.5 mg/kg, listed as ISP358-2, 0.5 mg/kg): spent significantly more time with the novel object relative to chance; also recorded: enhanced memory consolidation | object recognition: time with novel object / memory consolidation (ovariectomized mice [4]; oral gavage, 5 mg/kg, listed as ISP358-2, 5 mg/kg): spent significantly more time with the novel object relative to chance; also recorded: most effective; also recorded: enhanced memory consolidation | histological abnormalities / peripheral toxicity in liver, kidney, heart (ovariectomized mice [5]): unremarkable; also recorded: no obvious signs of peripheral toxicity; also recorded: Histological abnormalities were not detected | IC50 [6]: 0.93 ± 0.069 µM | IC50 (ERα [7]): 20.4 µM and 18.6 µM
